Species on record: Rattus norvegicus
Experiment: DrugMatrix - Regimen: Daily Repeat
Assay type: toxicity, organism-based, Sprague-Dawley
Parameters: regimen Daily Repeat, gender Male, age 6-8 weeks
Conditions: in vivo, po, 0 mg/kg, route oral GAVAGE, dose level Control, vehicle .5 % CMC; for ABSOLUTE BASOPHIL / ABSOLUTE EOSINOPHIL / ABSOLUTE LYMPHOCYTE / ABSOLUTE MONOCYTE / ABSOLUTE SEGMENTED NEUTROPHIL / BASOPHIL / EOSINOPHIL / ERYTHROCYTE COUNT / HEMATOCRIT / HEMOGLOBIN / LEUKOCYTE COUNT / LYMPHOCYTE / MEAN CORPUSCULAR HEMOGLOBIN / MEAN CORPUSCULAR HEMOGLOBIN CONCENTRATION / MEAN CORPUSCULAR VOLUME / MONOCYTE / NEUTROPHIL / NUCLEATED RED BLOOD CELLS / PLATELET COUNT: tissue Blood; for ALANINE AMINOTRANSFERASE / ALBUMIN / ALKALINE PHOSPHATASE / ASPARTATE AMINOTRANSFERASE / BLOOD UREA NITROGEN / CARBON DIOXIDE / CHLORIDE / CHOLESTEROL / CREATINE PHOSPHOKINASE / CREATININE / GLUCOSE / LACTATE DEHYDROGENASE / LIPASE / PHOSPHORUS / POTASSIUM / SODIUM / TOTAL BILIRUBIN / TOTAL PROTEIN / URIC ACID: tissue Plasma

In the case of `COc1ccccc1OCC(O)COC(N)=O` (stereo unspecified) [METHOCARBAMOL], the “ABSOLUTE BASOPHIL” value (72 h, time 3 day) is reported as 0 CELLS/uL, the “ABSOLUTE EOSINOPHIL” value (72 h, time 3 day) is reported as 171.33 CELLS/uL and the “ABSOLUTE LYMPHOCYTE” value (72 h, time 3 day) is reported as 13776.5 CELLS/uL. The “ABSOLUTE MONOCYTE” value (72 h, time 3 day) was 180.83 CELLS/uL, the “ABSOLUTE SEGMENTED NEUTROPHIL” value (72 h, time 3 day) was 1121.33 CELLS/uL and the BASOPHIL (72 h, time 3 day) was 0%. For the same compound, the EOSINOPHIL (72 h, time 3 day) was 1%, the “ERYTHROCYTE COUNT” value (72 h, time 3 day) was 5.56 x10E6/uL and the HEMATOCRIT (72 h, time 3 day) was 34.75%. The HEMOGLOBIN (72 h, time 3 day) was 13.68 G/DL, the “LEUKOCYTE COUNT” value (72 h, time 3 day) was 15.25 x10E3/uL and the LYMPHOCYTE (72 h, time 3 day) was 90.17%. For the same compound, the “MEAN CORPUSCULAR HEMOGLOBIN” value (72 h, time 3 day) was 24.6 pg, the “MEAN CORPUSCULAR HEMOGLOBIN CONCENTRATION” value (72 h, time 3 day) was 39.4 G/DL and the “MEAN CORPUSCULAR VOLUME” value (72 h, time 3 day) was 62.48 fL. The MONOCYTE (72 h, time 3 day) was 1.17%, the NEUTROPHIL (72 h, time 3 day) was 7.67% and the “NUCLEATED RED BLOOD CELLS” value (72 h, time 3 day) was 0 /100WBC. The “PLATELET COUNT” value (72 h, time 3 day) was 1342 x10E3/uL, the “ALANINE AMINOTRANSFERASE” value (72 h, time 3 day) was 49.67 u/L and the ALBUMIN (72 h, time 3 day) was 4.15 G/DL. For the same compound, the “ALKALINE PHOSPHATASE” value (72 h, time 3 day) was 346.83 u/L, the “ASPARTATE AMINOTRANSFERASE” value (72 h, time 3 day) was 108.17 u/L and the “BLOOD UREA NITROGEN” value (72 h, time 3 day) was 17.33 mg/dL. For the same compound, the “CARBON DIOXIDE” value (72 h, time 3 day) was 25 mmol/L, the CHLORIDE (72 h, time 3 day) was 100.83 MEQ/L and the CHOLESTEROL (72 h, time 3 day) was 66.83 mg/dL. For the same compound, the “CREATINE PHOSPHOKINASE” value (72 h, time 3 day) was 788 u/L, the CREATININE (72 h, time 3 day) was 0.18 mg/dL and the GLUCOSE (72 h, time 3 day) was 151.67 mg/dL. For the same compound, the “LACTATE DEHYDROGENASE” value (72 h, time 3 day) was 982.5 u/L, the LIPASE (72 h, time 3 day) was 10.33 u/L and the PHOSPHORUS (72 h, time 3 day) was 11.23 mg/dL. The POTASSIUM (72 h, time 3 day) was 6.37 MEQ/L, the SODIUM (72 h, time 3 day) was 141.02 MEQ/L and the “TOTAL BILIRUBIN” value (72 h, time 3 day) was 0.18 mg/dL. The “TOTAL PROTEIN” value (72 h, time 3 day) was 5.9 G/DL, the “URIC ACID” value (72 h, time 3 day) was 1.8 mg/dL and the “ABSOLUTE BASOPHIL” value (120 h, time 5 day) was 0 CELLS/uL. For the same compound, the “ABSOLUTE EOSINOPHIL” value (120 h, time 5 day) was 69 CELLS/uL, the “ABSOLUTE LYMPHOCYTE” value (120 h, time 5 day) was 13632.83 CELLS/uL and the “ABSOLUTE MONOCYTE” value (120 h, time 5 day) was 139.83 CELLS/uL. The “ABSOLUTE SEGMENTED NEUTROPHIL” value (120 h, time 5 day) was 1225 CELLS/uL, the BASOPHIL (120 h, time 5 day) was 0% and the EOSINOPHIL (120 h, time 5 day) was 0.33%. For the same compound, the “ERYTHROCYTE COUNT” value (120 h, time 5 day) was 5.52 x10E6/uL, the HEMATOCRIT (120 h, time 5 day) was 33.98% and the HEMOGLOBIN (120 h, time 5 day) was 13.22 G/DL. The “LEUKOCYTE COUNT” value (120 h, time 5 day) was 15.07 x10E3/uL, the LYMPHOCYTE (120 h, time 5 day) was 90.83% and the “MEAN CORPUSCULAR HEMOGLOBIN” value (120 h, time 5 day) was 23.95 pg. For the same compound, the “MEAN CORPUSCULAR HEMOGLOBIN CONCENTRATION” value (120 h, time 5 day) was 38.9 G/DL, the “MEAN CORPUSCULAR VOLUME” value (120 h, time 5 day) was 61.53 fL and the MONOCYTE (120 h, time 5 day) was 0.83%. The NEUTROPHIL (120 h, time 5 day) was 8%, the “NUCLEATED RED BLOOD CELLS” value (120 h, time 5 day) was 0 /100WBC and the “PLATELET COUNT” value (120 h, time 5 day) was 1196 x10E3/uL. For the same compound, the “ALANINE AMINOTRANSFERASE” value (120 h, time 5 day) was 49.17 u/L, the ALBUMIN (120 h, time 5 day) was 4.2 G/DL and the “ALKALINE PHOSPHATASE” value (120 h, time 5 day) was 352.33 u/L. For the same compound, the “ASPARTATE AMINOTRANSFERASE” value (120 h, time 5 day) was 89.67 u/L, the “BLOOD UREA NITROGEN” value (120 h, time 5 day) was 18 mg/dL and the “CARBON DIOXIDE” value (120 h, time 5 day) was 27.67 mmol/L. For the same compound, the CHLORIDE (120 h, time 5 day) was 101 MEQ/L, the CHOLESTEROL (120 h, time 5 day) was 72.83 mg/dL and the “CREATINE PHOSPHOKINASE” value (120 h, time 5 day) was 417.5 u/L. The CREATININE (120 h, time 5 day) was 0.18 mg/dL, the GLUCOSE (120 h, time 5 day) was 150.5 mg/dL and the “LACTATE DEHYDROGENASE” value (120 h, time 5 day) was 517.33 u/L. The LIPASE (120 h, time 5 day) was 9 u/L, the PHOSPHORUS (120 h, time 5 day) was 11.87 mg/dL and the POTASSIUM (120 h, time 5 day) was 6.57 MEQ/L. For the same compound, the SODIUM (120 h, time 5 day) was 143.62 MEQ/L, the “TOTAL BILIRUBIN” value (120 h, time 5 day) was 0.2 mg/dL and the “TOTAL PROTEIN” value (120 h, time 5 day) was 6.08 G/DL. The “URIC ACID” value (120 h, time 5 day) was 1.45 mg/dL.
